From patent US20050239715A1, “Inhibition of allergic contact dermatitis by N-L-alpha-aspartyl-L-phenylalanine 1-methyl ester” (priority 2004, published 2005)
Residues, ends and D or L forms follow the SMILES beside them.

What was measured:
[1] = test system: allergic contact dermatitis, skin previously exposed to urushiol; assay: Example 1: treatment of allergic contact dermatitis with APM in a cream base; format: in vivo; settings: thin film of APM in cream base, after sixty (60) minutes
Description: To an area of skin previously exposed to urushiol is applied a thin film of APM in a cream base. […] Further treatment may include washing the affected area to remove and displace urushiol dissolved in the applied lotion and followed by reapplication of APM containing cream or lotion.

[2] = cited from earlier work
[3] = test system: human rash secondary to urushiol exposure; assay: Example 4: treatment of rash caused by urushiol; format: in vivo
Procedure: A human rash, with itching, in progress secondary to contact with an animal known to have had significant exposure to urushiol substances was arrested in 8 hours with 2 applications of aspartame in a Vaseline Intensive Care Lotion base (about 1.2 to 10 mg/ml). The itching ceased, and discomfort and irritation resolved within 8 hours.

[4] = test system: Urushiol-Induced Dermatitis on Human Skin; assay: Example 3: treatment and prevention of urushiol-induced dermatitis on human skin (Patient 1); format: in vivo; settings: topical lotion 0.5 to 1 mg APM/ml, two to three times per day, also two packets Equal by mouth
Procedure: The goats frequently consumed and were in contact with both poison sumac and poison ivy abundant in their enclosure without experiencing symptoms.
A topical APM preparation was made by mixing 2 to 3 packets of Equal® brand sweetner (80-120 mg of APM) with approximately 170 ml (5.5 fluid ounces) of lotion containing Vaseline® Intensive Care® Water Resistant Moisturizing Lotion (Unilever United States, Inc.), resulting in a lotion with 0.5 to 1 mg APM/ml. Patient 1 had previously used the lotion base without effect. Patient 1 also took two packets of Equal® brand sweetener by mouth in response to a symptom of diarrhea, a condition known to be associated with urishiol.
A soap and water scrub of the affected area was done one hour after application of the cream, and the affected area allowed to air dry.
Additional affected areas were then discovered on Patient 1, and a lotion was prepared for Patient 1 to use on these areas as well as unaffected areas that could come in contact with poison ivy during their work. Patient 1 used additional topical APM preparation approximately two to three times per day.

[5] = test system: Urushiol-Induced Dermatitis on Human Skin; assay: Example 2: prevention of urushiol-induced dermatitis on human skin; format: in vivo; settings: thin film of APM suspended in petroleum cream base applied before exposure
Description: To an area of skin which may be exposed to urushiol is applied a thin film of APM suspended in a petroleum cream base.

[6] = test system: capsaicin burning of the eye; assay: Example 7: capsaicin burning of the eye; format: in vivo, human; settings: about 10 mg per 250 microliters in sterile saline applied to eye
Procedure: A kitchen worker is exposed to capsaicin oil from peppers during cooking preparation, the oil is transferred to their hands and then, by their hands, to their eyes, resulting in a burning sensation and pain. […] The application may be repeated in 15 min because tearing may dilute or wash away the active ingredients.

[7] = test system: capsaicin burning and pain of mucosa; assay: Example 8: APM after inadvertent mucosal contact with capsaicin cream; format: in vivo, human; settings: preparation of 38 mg APM per 5 ml applied to affected area
Procedure: A patient is treated for arthritis with a capsaicin cream applied twice daily to the affected joint. Capsaicin is absorbed by the transdermal tissue and then transported to joint area. After an appropriate interval, for instance 2-5 days, significant reduction in swelling, heat, redness, and pain is observed. However, the patient also inadvertently contacts his or her urethra, periurethra tissues, vaginal mucosa, rectal mucosa, eyes, or nose with the capsaicin cream, resulting in a sensation of burning and pain in the affected area.

[8] = test system: capsaicin taste receptor (heat and irritation of the tongue); assay: Oral application of APM with capsaicin-containing red pepper sauce; format: in vivo
Description: The variability in observable results in preventing dermatitis or topical irritation appear related to the amount of APM that is applied, the time and order of the therapeutic application, and the presence of receptors to which either the irritant oil or APM may bind.

Question: Which results are given for `COC(=O)[C@H](Cc1ccccc1)NC(=O)[C@@H](N)CC(=O)O` [APM, N-L-alpha-aspartyl-L-phenylalanine 1-methyl ester] (H-Asp-Phe-OMe)?
Answer: symptoms of allergic contact dermatitis [1]: significantly reduced; pH at which cyclisation with formation of diketopiperazine occurs in APM solutions [2]: greater than 5; time in which rash with itching was arrested ([3]; 2 applications in Vaseline Intensive Care Lotion base, about 1.2 to 10 mg/ml): 8 h; time in which itching ceased and discomfort and irritation resolved ([3]; 2 applications in lotion base, about 1.2 to 10 mg/ml): ≤ 8 h; state of rash overnight ([3]; overnight after 2 applications in lotion base): the rash was gone; rash or reaction observed on the day after application [4]: no rash or reaction had occurred; symptoms of allergic contact dermatitis [5]: either do not appear or are significantly reduced; burning sensation of the eye [6]: alleviated; burning and pain of affected area [7]: reducing or eliminating the burning and pain; perception of spiciness of red pepper sauce ([8]; APM applied orally before red pepper sauce): absence of recognition of the spicyness; APM response after long duration of exposure to capsaicin ([8]; long exposure with secondary effects): not as strong nor as quick; response when APM is applied after sensations of heat and irritation developed ([8]; red pepper sauce applied to tongue first, APM after): manifested and recognized quickly
